The source of these data is patent US6638949B1, “Prevention of adhesions and excessive scar formation using angiogenesis inhibitors” (priority 1997, dated 2003).

Holding throughout (assay type): in vivo, mice
In assay [1] the test system is full thickness mouse wounds. The assay can be described thus: Histology of full thickness mouse wounds (hematoxylin and eosin) after TNP-470 treatment. The protocol: Full thickness mouse wounds were made in adult mice, the majority of whom were six to eight weeks old and some of whom were fourteen to sixteen weeks old. Mice were pretreated for sixty days with TNP-470, then wounds were made, and healing monitored. Mice were treated with 30 mg/kg TNP-470 administered subcutaneously every other day. Histological micrographs of open mouse wounds harvested at 7, 12, and 17 days post excision were made. The biopsies were fixed, embedded, sectioned and stained with hematoxylin and eosin.

The subject of another assay is linear wounds. In words: Breaking strength (tensile strength) of linear wounds. The note with it: for inhibition of breaking strength: systemic, FIG. 3, n=280 mice, statistically significant. The protocol:
FIG. 3 is a graph of breaking strength (tensile strength) of linear wounds after systemic administration of TNP-470 days −20 to 0; days 0 to 4; days 0 to 12; days 5 to 12; and control, measured on days 4, 7 and 12 after wounding. Mice were treated essentially the same as described in Example 1. FIG. 3 (n=280 mice)graphs breaking strength of linear wounds after systemic administration of TNP-470. Breaking strength was inhibited 36% on post wound day 7 and 43% on post wound day 12. This was statistically significant. The wounds were inhibited if TNP-470 was given on post wound days 0, 2, 4 or post wound days 0, 2, 4, 6, 8, and 10.

In assay [2] the test system is basic fibroblast growth factor (bFGF). In words: Endogenous basic fibroblast growth factor (bFGF) in the wound. To be noted: day 10 after wound; average; p≦0.05. The method, then:
FIG. 1 is a graph of endogenous basic fibroblast growth factor (bFGF)(pg/cm2) over time (days after wounding) of mice treated with TNP-470 (solid circles) and controls that were not treated (open circles). Full thickness mouse wounds were made in adult mice, the majority of whom were six to eight weeks old and some of whom were fourteen to sixteen weeks old. Mice were pretreated for sixty days with TNP-470, then wounds were made, and healing monitored. Mice were treated with 30 mg/kg TNP-470 administered subcutaneously every other day. Mice were treated essentially the same as described in Example 1.

The next assay deals with full thickness wounds. In words: Wound closure / contraction of full thickness wounds. The source says: FIG. 2 is a graph of percent wounds open over time (days after wounding) for mice treated with TNP-470 for different dosage regimes: pretreatment days −60 to day 0; treated with TNP-470 days 5 to 18; treated with TNP-470 days 0 to 18; and treated with TNP-470 days 0, 2 and 4. Full thickness mouse wounds were made in adult mice, the majority of whom were six to eight weeks old and some of whom were fourteen to sixteen weeks old. Mice were pretreated for sixty days with TNP-470, then wounds were made, and healing monitored. Mice were treated with 30 mg/kg TNP-470 administered subcutaneously every other day. Mice were treated essentially the same as described in Example 1. Histological analysis of the wounds in the control and treated mice compared contraction of full thickness wounds in mice treated with systemic TNP-470 (AGM 1470), every other day after the wound is made, with untreated mice. Treatment with TNP-470 every other day after the wound is made (at a dose identical to that which results in maximal tumor inhibition) causes a 5-day delay in the complete contraction of the wound.

The mark [3] stands for this setting: 17 days post excision, vs untreated.
Setting [4] is: given on post wound days 0, 2, 4, or post wound days 0, 2, 4, 6, 8, and 10.

For `CO[C@@H]1[C@H](OC(=O)NC(=O)CCl)CC[C@]2(CO2)[C@H]1[C@@]1(C)O[C@@H]1CC=C(C)C` [TNP-470, 0-chloroacetylcarbamoyl-Fumagillol], the “blood vessels in healing wound granulation tissue” value in assay [1] (7 days post excision, 30 mg/kg s.c. every other day, vs untreated) is “relatively lower density of blood vessels”. Further, in assay [1] (12 days post excision, wound not completely closed, vs untreated), the “blood vessels in granulation tissue under re-epithelialized surface” value is recorded as “fewer vessels with smaller diameters”. In assay [1] (setting [3]), the “blood vessels in mature granulation tissue of healed wound” value is reported as “reduction in the number of vessels” and the “density of mesenchymal cells in granulation tissue” value is reported as “continued higher density of mesenchymal cells”. Besides, the “scar formation (histologic findings)” value in assay [1] (overall, 7, 12 and 17 days) is given as “severely retarded scar formation”. In addition, the “breaking strength of wounds” value with linear wounds (setting [4]) is reported as “inhibited”. Besides, the “inhibition of breaking strength” value with linear wounds (post wound day 7) is on record as 36%. For the same molecule, in the assay on linear wounds (post wound day 12), the “inhibition of breaking strength” value is given as 43%. Also, in assay [2], the “reduction of bFGF concentration in wound” value was found to be 37%. For the same molecule, the “wound healing slowed, time to full contraction” value in the assay on full thickness wounds (FIG. 2, n=440 mice, statistically significant) came to 5 days. In the assay with full thickness wounds (setting [4]), the wound healing result is “remained inhibited”. In the assay on full thickness wounds (systemic, every other day after the wound is made, dose of maximal tumor inhibition), the “delay in the complete contraction of the wound” value worked out at 5 days.
